Patent US8309567B2, “Spiroindoline derivatives having insecticidal properties” (priority 2003, dated 2012)

Test system: Spodoptera littoralis (Egyptian cotton leafworm)
Assay: Spodoptera littoralis cotton leaf disc spray test
Type: in vivo
Settings: 200 ppm sprayed on cotton leaf discs, L1 larvae, 3 days after treatment; mortality, repellent effect, feeding behaviour, growth regulation
Procedure: This Example illustrates the pesticidal/insecticidal properties of compounds of formula (I). Test against were performed as follows:
Spodoptera littoralis (Egyptian cotton leafworm)
Cotton leaf discs were placed on agar in a 24-well microtiter plate and sprayed with test solutions at an application rate of 200 ppm. After drying, the leaf discs were infested with 5 L1 larvae. The samples were checked for mortality, repellent effect, feeding behaviour, and growth regulation 3 days after treatment (DAT). The following compounds gave at least 80% control of Spodoptera littoralis: CIII-49.

How did the “control of Spodoptera littoralis” value turn out when O=C(c1ccnc(Cl)c1)N1C[C@]2(CCN(C/C=C/c3ccc(Cl)cc3)C[C@H]2O)c2cc(Cl)ccc21 [CIII-49, 5-chloro-1-(2-chloropyridin-4-yl)carbonyl-1′-[trans-3-(4-chlorophenyl)allyl]-3′-hydroxy-spiro[indoline-3,4′-piperidine]] was run?
Its value is “at least 80%”.
